Results: patent US5523408A, “2-carbocyclic and 2-heterocyclic quinoline-4-carboxylic acids and salts thereof useful as immunosuppressive agents” (The Dupont Merck Pharmaceutical Company, priority 1994, dated 1996)
Where a name gives a salt, the structure may show the parent alone. Read-outs that look alike come from different tables or passages of the source.

What was measured:
[1] = system: human mixed lymphocyte reaction; experiment: Human Mixed Lymphocyte Reaction Test (MLR); format: cell-based; details: 144 h
Source text: The human mixed lymphocyte reaction is an in vitro immune response. Inhibition of the human mixed lymphocyte reaction immune response is a standard assay used in the field of immunology, which is considered to be indicative of in vivo immunosuppressive activity. […] The human mixed lymphocyte is also used as a model system for immune reactions involving T-cell-mediated immune responses. Such T-cell-mediated immune responses have been linked to the disease pathology associated with autoimmune diseases, chronic inflammatory diseases, graft versus host disease and organ transplantation rejection.
Blood was obtained by venipuncture from two non-related human donors. Peripheral blood mononuclear cells (PBMC) were isolated from these samples by using the Leuco Prep procedure (Becton-Dickinson). […] Cells from donor A (2×10^5) were incubated with cells from donor B (2×10^5) with or without compound in 96 well round bottom microtiter plates at 37° C., 5% CO2 for 6 days. Eighteen hours prior to harvesting cells from the plates, all wells were pulsed with 1 uCi of tritiated-thymidine. Cells from the plates were washed on day 6 and tritiated-thymidine incorporation was determined using a scintillation counter.

[2] = system: contact sensitivity response to 2,4-dinitrofluorobenzene (DNFB); experiment: Assay of Contact Sensitivity Response to DNFB in Mice; format: in vivo, Balb/c female mice; details: oral, 0.25% Methocel; ear swelling 24 hours after DNFB challenge
Source text: Contact sensitivity to 2,4-dinitrofluorobenzene (DNFB) has been extensively studied and characterized in the mouse to determine the regulatory mechanisms involved in cell mediated immune responses (Claman et al., Immunol. Rev. 50:105, 1980; Young and Young, "Cutaneous Models of Inflammation for the Evaluation of Topical and Systemic Pharmacological Agents" in Pharmacological Methods in the Control of Inflammation (Chang and Lewis, Eds.), Alan R. Liss, Inc., New York, pp. 215-231, 1989). This is an antigen-specific T-cell mediated inflammatory response that represents delayed-type hypersensitivity reactions seen in both humans and other mammals. This contact sensitivity animal model is used routinely in many laboratories for pharmacological screening of antiinflammatory agents.
The contact sensitivity model used for this study is an extensively used model system for delayed-type hypersensitivity reactions involving cell-mediated immune responses (T-cell mediated responses), which have been linked to the disease pathology associated with organ transplantation rejection, graft versus host disease, multiple sclerosis, myasthenia gravis, systemic lupus erythematosus, rheumatoid arthritis, and other chronic inflammatory diseases and autoimmune diseases for which the T-cell is pivotal to mounting an immune or autoimmune response.
Balb/c female mice (approximately 20 g, Charles River) were sensitized on the shaved abdomen with 25 uL of 0.5% 2,4-dinitrofluorobenzene (DNFB) (Eastman Kodak Co.) in a vehicle of 4:1 acetone: olive oil on days 0 and 1. Mice were ear challenged with 20 uL of 0.2% DNFB in a vehicle of 4:1 acetone: olive oil on day 5. An identical segment of the ear was measured immediately before challenge and 24 hours later with an engineer's micrometer. Ear swelling was expressed as the difference in ear thickness before and after challenge in units of 10-4 inches±SEM. Percent suppression was calculated as: [formula] Compounds (prepared in 0.25% Methocel®) were administered orally. Control animals received only vehicle (0.25% Methocel®). Negative controls were not sensitized on days 0 and 1 but were ear challenged on day 5. Ten mice are typically used per group.
Contact sensitivity results for representative compounds of the present invention are shown in Table B. In this table, + designates greater than 30% suppression of control ear swelling.

[3] = human MLR, tritiated-thymidine incorporation, 6 days, read-out: IC50

Row | Structure (SMILES) | IC50 [1, 3] | Contact Sensitivity Activity (suppression of control ear swelling) [2] | IC50 ([1]; Homo sapiens)
1 | Cc1c(N2CCc3c(-c4ccccc4)cccc32)nc2ccc(F)cc2c1C(=O)O [Ex. 1, 6-fluoro-3-methyl-2-(4-phenyl-1-indolinyl)quinoline-4-carboxylic acid] | < 50 nM | + (greater than 30% suppression of control ear swelling) | 
2 | Cc1c(N2CCc3c(-c4ccccc4)cccc32)nc2ccc(F)cc2c1C(=O)[O-].[Na+] [Ex. 2, 6-fluoro-3-methyl-2-(4-phenyl-1-indolinyl)quinoline-4-carboxylic acid, sodium salt] |  | + (greater than 30% suppression of control ear swelling) | 
3 | Cc1c(N2CCc3c(-c4ccccc4)cccc32)nc2ccccc2c1C(=O)O [Ex. 4] | 50 to 10000 nM | + (greater than 30% suppression of control ear swelling) | 
4 | O=C(O)c1cc(N2CCc3c(-c4ccccc4)cccc32)nc2ccc(F)cc12 [Ex. 5, 6-fluoro-2-(4-phenyl-1-indolinyl)-quinoline-4-carboxylic acid, sodium salt] |  |  | < 50 nM
5 | O=C([O-])c1cc(N2CCc3c(-c4cccc(C(F)(F)F)c4)cccc32)nc2ccc(F)cc12.[Na+] [Ex. 6, 6-fluoro-2-[4-(3-trifluoromethylphenyl)-1-indolinyl]-quinoline-4-carboxylicacid, sodium salt] |  | + (greater than 30% suppression of control ear swelling) | < 50 nM
6 | O=C(O)c1cc(N2CCc3c(-c4ccccc4F)cccc32)nc2ccc(F)cc12 [Ex. 7] | < 50 nM | + (greater than 30% suppression of control ear swelling) | 
7 | Cc1ccccc1-c1cccc2c1CCN2c1cc(C(=O)O)c2cc(F)ccc2n1 [Ex. 8, 6-fluoro-2-[4-(2-methylphenyl)-1-indolinyl]-quinoline-4-carboxylic acid, sodium salt] |  |  | < 50 nM
8 | COc1ccccc1-c1cccc2c1CCN2c1nc2ccc(F)cc2c(C(=O)O)c1C [Ex. 9, 6-fluoro-[4-(2-methoxyphenyl)-1-indolinyl]-3-methylquinoline-4-carboxylic acid, sodium salt] | < 50 nM |  | 
9 | Cc1c(N2CCc3c(-c4ccccc4F)cccc32)nc2ccc(F)cc2c1C(=O)[O-].[Na+] [Ex. 10, 6-fluoro-2-[4-(2-fluorophenyl)-1-indolinyl]-3-methylquinoline-4-carboxylic acid, sodium salt] |  | + (greater than 30% suppression of control ear swelling) | < 50 nM
10 | Cc1ccccc1-c1cccc2c1CCN2c1nc2ccc(F)cc2c(C(=O)O)c1C [Ex. 11, 6-fluoro-3-methyl-2-[4-(2-methylphenyl)-1-indolinyl]-quinoline-4-carboxylicacid, sodium salt] |  |  | < 50 nM
11 | Cc1c(N2CCc3c(-c4cccc(C(F)(F)F)c4)cccc32)nc2ccc(F)cc2c1C(=O)[O-].[Na+] [Ex. 12, 6-fluoro-3-methyl-2-[4-(3-trifluoromethylphenyl)-1-indolinyl]-quinoline-4-carboxylic acid, sodium salt] |  | + (greater than 30% suppression of control ear swelling) | < 50 nM
12 | COc1cccc(-c2cccc3c2CCN3c2nc3ccc(F)cc3c(C(=O)O)c2C)c1 [Ex. 13, 6-fluoro-[4-(3-methoxyphenyl)-1-indolinyl]-3-methylquinoline-4-carboxylic acid, sodium salt] | < 50 nM |  | 
13 | Cc1c(-n2ccc3c(-c4ccccc4)cccc32)nc2ccc(F)cc2c1C(=O)O [Ex. 46] | 50 to 10000 nM | + (greater than 30% suppression of control ear swelling) | 
14 | Cc1c(-n2ccc3c(-c4ccccc4)cccc32)nc2ccc(F)cc2c1C(=O)[O-].[Na+] [Ex. 47, 6-fluoro-3-methyl-2-(4-phenyl-1-indolyl)-quinoline-4-carboxylic acid, sodium salt] |  | + (greater than 30% suppression of control ear swelling) | 
15 | Cc1c(-n2cnc3c(-c4ccccc4)cc(F)cc32)nc2ccc(F)cc2c1C(=O)O [Ex. 68, 6-fluoro-3-methyl-2-(6-fluoro-4-phenyl-1-benzimidazolyl)quinoline-4-carboxylic acid] | 50 to 10000 nM |  | 
16 | Cc1c(-c2cn(C)c3c(-c4ccccc4)cccc23)nc2ccc(C(F)(F)F)cc2c1C(=O)O [Ex. 73, 3-methyl-2-(7-phenyl-1-methyl-3-indolyl)-6-trifluoromethylquinoline-4-carboxylic acid, sodium salt] |  |  | < 50 nM
17 | Cc1c(-c2cn(C)c3c(-c4ccccc4)cccc23)nc2ccc(F)cc2c1C(=O)[O-].[Na+] [Ex. 75, 6-fluoro-3-methyl-2-(7-phenyl-1-methyl-3-indolyl)-quinoline-4-carboxylic acid, sodium salt] |  | + (greater than 30% suppression of control ear swelling) | 50 to 10000 nM
18 | Cc1c(-c2cccc3c(-c4ccccc4)cccc23)nc2ccc(F)cc2c1C(=O)O [Ex. 128, 6-fluoro-3-methyl-2-(5-phenyl-1-naphthyl) quinoline-4-carboxylic acid, sodium salt] | 50 to 10000 nM |  | 
19 | CN(Cc1cnc2nc(N)nc(N)c2n1)c1ccc(C(=O)N[C@@H](CCC(=O)O)C(=O)O)cc1 [methotrexate, reference compound] |  | + (greater than 30% suppression of control ear swelling) | < 50 nM
